Where “and” joins values, the source holds several entries; their conditions need not be identical. Equal entries are not always repeated.
Tests used:
[1] = target: T1, recombinant soluble E-selectin (Homo sapiens, UniProt P16581); assay: Recombinant soluble E-selectin/HL-60 cell adhesion assay; format: cell-based; conditions: for Ratio (50 percent binding value for the standard Compound Z divided by the 50 percent binding value for the assayed sample) / IC50 value ratio of SLe^x to that of the compound: E-Selectin Cell Adhesion Assay, HL-60 cells; for Ratio (50 percent binding value for the standard Compound Z divided by the 50 percent binding value for the assayed sample): relative to Compound Z; for IC50 value ratio of SLe^x to that of the compound: relative to SLe^x (Table 1 value divided by 0.76); for inhibition of HL-60 cell adhesion to recombinant soluble E-selectin-coated plates, activity order: FIG. 1, range of inhibitor concentrations (mM)
T1 construct: The 3'-amplimer inserted the termination codon TGA after amino acid number 527 of the mature E-selectin; made in house
T1 sequence (P16581 22-548 limits assumed): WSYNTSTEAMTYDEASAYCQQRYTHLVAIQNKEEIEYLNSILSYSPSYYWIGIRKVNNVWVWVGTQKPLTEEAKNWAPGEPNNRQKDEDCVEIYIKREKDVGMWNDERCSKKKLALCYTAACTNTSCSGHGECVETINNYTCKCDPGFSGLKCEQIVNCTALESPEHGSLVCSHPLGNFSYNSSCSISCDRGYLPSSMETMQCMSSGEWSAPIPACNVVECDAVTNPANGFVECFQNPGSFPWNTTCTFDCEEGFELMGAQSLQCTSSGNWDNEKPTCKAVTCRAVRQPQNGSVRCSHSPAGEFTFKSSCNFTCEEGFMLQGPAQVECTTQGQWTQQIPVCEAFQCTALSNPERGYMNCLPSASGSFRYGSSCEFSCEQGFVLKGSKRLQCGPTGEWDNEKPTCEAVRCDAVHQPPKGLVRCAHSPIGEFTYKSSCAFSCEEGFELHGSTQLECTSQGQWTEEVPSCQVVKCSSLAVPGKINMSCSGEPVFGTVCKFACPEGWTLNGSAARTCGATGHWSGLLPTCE
Protocol: A modified recombinant soluble E-selectin/HL-60 cell adhesion assay was developed to provide a simple and highly reproducible method with which to compare the E-selectin blocking potential of a bivalent SLe^x saccharide compound. In this assay, recombinant soluble E-selectin (rELAM) is bound to the plastic surface of a 96 well ELISA plate. Dilutions of bivalent SLe^x saccharide compounds to be assayed are added to the wells followed by HL-60 cells which bear the ligand for E-selectin. The cells are allowed to adhere to the E-selectin coated assay plate and the nonadherent cells are removed by washing the plate with an automated plate washer. Bound cells are quantitated by measuring the cellular enzyme myeloperoxidase. The molar concentration of assayed bivalent SLe^x saccharide required to achieve 50 percent inhibition of control adhesion such as that inhibited by free SLe^x or an analog is used to compare the contemplated analogs for potency.
rELAM (recombinant modified ELAM-1) affinity purified, prepared as follows below. Each batch of rELAM was tested functionally to determine the appropriate concentration for use in the assay. A batch was titrated over a range of 1-5 μg/mL using inhibition by Compound Z (described hereinafter) as the standard. Small aliquots were then prepared, quick frozen in a dry-ice acetone bath and stored at -70° C. Each aliquot was opened only one time and then discarded or saved for use in other types of assays.
The soluble form of E-selectin (rELAM or sol-E-selectin) used here was engineered by deleting the transmembrane domain from the cDNA. This recombinant cDNA was cloned into a mammalian expression vector pCDNA1 [a derivative of pCDM8; Seed, Nature, 329:840 (1987)] that contains the chimeric cytomegalovirus/human immunodeficiency virus promoter. When introduced into the adenovirus-transformed human kidney cell line 293, expression of the CMV promoter is efficiently activated by the E1 gene products by a mechanism that has not been fully delineated. The pCDNA1-sol-E-selectin construction was introduced, via calcium phosphate-mediated gene transfer, into 293 cells and a stable cell line expressing high levels of sol-E-selectin was generated. The sol-E-selectinproduced by these cells was purified by immunoaffinity chromatograph on an anti-E-selectin monoclonal antibody Protein-A Sepharose column.
A 1.67 Kbp DNA fragment encoding a truncated structural gene for E-selectin was isolated by polymerase chain reaction (PCR) amplification of cDNA derived from messenger RNA that was isolated from IL-1-activated human endothelial cells. The 5'-amplimer inserted a unique ClaI restriction site 28 nucleotides upstream from the initiation codon of the E-selectin structural gene. The 3'-amplimer inserted the termination codon TGA after amino acid number 527 of the mature E-selectin, followed by a unique XhoI restriction site. The carboxy-terminus of sol-E-selectin is located at the carboxy terminus of the sixth consensus repeat element, thereby deleting the transmembrane domain. The 1.67 Kbp PCR fragment was codigested with ClaI and XhoI restriction endonucleases and sub-cloned into the ClaI and XhoI restriction sites of the cloning vector pBluescript II, providing vector pBS11-sol-E-selectin. Expressed soluble-E-selectin is 527 amino acid residues in length and contains 11 potential N-glycosylation sites.
1. Assays were carried out in 96-well Immunolan 2 plates (Dynatech Laboratories, Inc., Chantilly, Va. catalog #011-0103655). The rELAM (sol-E-selectin) was diluted to the appropriate concentration for the current batch. For these assays, rELAM was used at 2.5 or 3.0 μg/mL in DPBS; with well coating being carried out at room temperature. Using a multichannel pipette, 50μl per well were added to the following wells of one ELISA plate: E1-E6, F1-F6, and G1-G6. DPBS (50μl ) was added to wells H1, H2, and H3 for use as controls. This plate is referred to as the pretest plate. […]

lung injury in rats = conditions: Mulligan et al., cited from earlier work
P-selectin = conditions: monomeric; Nelson et al.; cited from earlier work
E-selectin = conditions: monomeric; Nelson et al.; cited from earlier work
[2] = infusion, cobra venom-infused rats

SMILES	Ratio (50 percent binding value for the standard Compound Z divided by the 50 percent binding value for the assayed sample) [1]	IC50 value ratio of SLe^x to that of the compound [1]	inhibition of HL-60 cell adhesion to recombinant soluble E-selectin-coated plates, activity order [1]	accumulation of neutrophils (lung injury in rats; [2])	lung injury (lung injury in rats; [2])	IC50 (lung injury in rats; protection against lung injury in rats, read-out: in vivo IC50 value)	binding to P-selectin (P-selectin)	binding to E-selectin (E-selectin)
CCO[C@@H]1O[C@H](CO[C@@H]2O[C@H](CO)[C@@H](O[C@@H]3O[C@H](CO)[C@H](O)[C@H](O[C@]4(C(=O)O)C[C@H](O)[C@@H](NC(C)=O)[C@H]([C@H](O)[C@H](O)CO)O4)[C@H]3O)[C@H](O[C@@H]3O[C@@H](C)[C@@H](O)[C@@H](O)[C@@H]3O)[C@H]2NC(C)=O)[C@H](O)[C@H](O[C@@H]2O[C@H](CO)[C@@H](O[C@@H]3O[C@H](CO)[C@H](O)[C@H](O[C@]4(C(=O)O)C[C@H](O)[C@@H](NC(C)=O)[C@H]([C@H](O)[C@H](O)CO)O4)[C@H]3O)[C@H](O[C@@H]3O[C@@H](C)[C@@H](O)[C@@H](O)[C@@H]3O)[C@H]2NC(C)=O)[C@H]1O [Compound 1, Ethyl 3,6-bis-O-[(ammonium 5-acetamido-3,5-dideoxy-α-D-glycero-D-galacto-2-nonulo-pyranosylonate)-(2→3)-β-D-galactopyranosyl-(1→4)-(α-L-fucopyranosyl-(1→3))-2-acetamido-2-deoxy-β-D-glucopyranosyl]-β-D-galactopyranoside]	3.8 and 2.67	3.5-5	the most active	–	–	–	–	–
COC(=O)CCCCCO[C@@H]1O[C@H](CO[C@@H]2O[C@H](CO)[C@@H](O[C@@H]3O[C@H](CO)[C@H](O)[C@H](O[C@]4(C(=O)O)C[C@H](O)[C@@H](NC(C)=O)[C@H]([C@H](O)[C@H](O)CO)O4)[C@H]3O)[C@H](O[C@@H]3O[C@@H](C)[C@@H](O)[C@@H](O)[C@@H]3O)[C@H]2NC(C)=O)[C@H](O)[C@H](O)[C@H]1O[C@@H]1O[C@H](CO)[C@@H](O[C@@H]2O[C@H](CO)[C@H](O)[C@H](O[C@]3(C(=O)O)C[C@H](O)[C@@H](NC(C)=O)[C@H]([C@H](O)[C@H](O)CO)O3)[C@H]2O)[C@H](O[C@@H]2O[C@@H](C)[C@@H](O)[C@@H](O)[C@@H]2O)[C@H]1NC(C)=O [Compound 20, 5-Methoxycarbonylpentyl 2,6-bis-O-[(5-acetamido-3,5-dideoxy-α-D-glycero-D-galacto-2-nonulo-pyranosylonic acid)-yl-(2→3)-β-D-galactopyranosyl-(1→4)-(α-L-fucopyranosyl-(1→3))-2-acetamido-2-deoxy-β-D-glucopyranosyl]-β-D-galactopyranoside]	2.67	about 3.5	–	–	–	–	–	–
COC(=O)CCCCCO[C@@H]1O[C@H](CO[C@@H]2O[C@H](CO)[C@@H](O[C@@H]3O[C@H](CO)[C@H](O)[C@H](O[C@]4(C(=O)O)C[C@H](O)[C@@H](NC(C)=O)[C@H]([C@H](O)[C@H](O)CO)O4)[C@H]3O)[C@H](O[C@@H]3O[C@@H](C)[C@@H](O)[C@@H](O)[C@@H]3O)[C@H]2NC(C)=O)[C@H](O[C@@H]2O[C@H](CO)[C@@H](O[C@@H]3O[C@H](CO)[C@H](O)[C@H](O[C@]4(C(=O)O)C[C@H](O)[C@@H](NC(C)=O)[C@H]([C@H](O)[C@H](O)CO)O4)[C@H]3O)[C@H](O[C@@H]3O[C@@H](C)[C@@H](O)[C@@H](O)[C@@H]3O)[C@H]2NC(C)=O)[C@H](O)[C@H]1O [Compound 21, 5-Methoxycarbonylpentyl 4,6-bis-O-[(5-acetamido-3,5-dideoxy-α-D-glycero-D-galacto-2-nonulo-pyranosylonic acid)-yl-(2→3)-β-D-galactopyranosyl-(1→4)-(α-L-fucopyranosyl-(1→3))-2-acetamido-2-deoxy-β-D-glucopyranosyl]-β-D-galactopyranoside]	1.67	–	more active than Compound 20	–	–	–	–	–
CC(=O)N[C@H]1[C@H]([C@H](O)[C@H](O)CO)O[C@@](O[C@H]2[C@@H](O)[C@@H](CO)O[C@@H](O[C@H]3[C@H](O[C@@H]4O[C@@H](C)[C@@H](O)[C@@H](O)[C@@H]4O)[C@@H](NC(C)=O)C(O)O[C@@H]3CO)[C@@H]2O)(C(=O)O)C[C@@H]1O (stereo partly shown) [SLe^x, NeuAcα2→3βGalβ1→4(Fucα1→3)GlcNAc]	0.76	–	–	reduced accumulation of neutrophils	reduced lung injury	~1000 nM	binds weakly	binds weakly

— patent US5559103A, “Bivalent sialyl X saccharides” (Cytel Corporation, priority 1994, dated 1996)
